Patent publication US20130324522A1, “INSECT ODORANT RECEPTOR ANTAGONISTS” (THE ROCKEFELLER UNIVERSITY, priority 2010, published 2013)
Where two headings read alike, the source gives them in different places.

How the values were obtained:
Type in all cases: cell-based
TRP channel (TRPM8) = target: T1, TRP channel (TRPM8) (Mus musculus, UniProt Q8R4D5); experiment: Ca2+-imaging of stable HEK293T cell line TRPM8; conditions: HEK-293T, read-out: Percent Inhibition TRPM8
T1 construct: Full-length cDNAs for mosquito (Anopheles gambiae) odorant receptor (OR1, OR2, OR7, OR8, OR28), and fly (Drosophila melanogaster) odorant receptor (Or47a, Or83b), mouse TRP channel (TRPM8); expressed in transfected cells
Experimental: (§1) Full-length cDNAs for mosquito (Anopheles gambiae) odorant receptor (OR1, OR2, OR7, OR8, OR28), and fly (Drosophila melanogaster) odorant receptor (Or47a, Or83b), mouse TRP channel (TRPM8), and mouse serotonin receptor (5HT3) were obtained and subcloned into mammalian expression vectors. The following mammalian expression vectors were used:
(§2) Stable cell lines OR1/OR7, OR2/OR7, OR8/OR7, OR10/OR7, OR28/OR7 and TRPM8 were generated from HEK293T cells. HEK293T-based cell lines were cultured in DMEM supplemented with these additional antibiotics: 6 μg/mL blasticidin and 1 μg/mL puromycin, with the exception of the TRPM8 cell lines, which was cultured in DMEM supplemented with 1 μg/mL puromycin.
(§3) Cells were trypsinized and split into 35 mm dishes one day before transfection. Confluent cells (60-70%) in 35 mm dishes were transfected with 1 μg of insect OR(X) plasmids in pME18s-bla and 1 μg of OR7-pME18s-puro using lipofectamine 2000. For Anopheles odorant receptors, two plasmids were co-transfected into HEK cells: the ligand-specific receptor (OR1, OR2, OR8, OR28) and the corresponding olfactory co-receptor: OR7. Cell lines containing TRPM8 were transfected with single plasmid.
(§4) Stable cell lines were cultured in 10 cm dishes, and confluent cells (70-80%) were trypsinized. 10,000 cells/20 μL were transferred into each well of 384-well plates coated with poly-D-lysine, and cultured for 2 days. For Flip-In T-Rex cells (cell lines expressing Or47a/Or83b and 5HT3), 5 μL of tetracycline (5 μg/mL) were added 1 day before the assay. 20 μL of Ca-4 dye was loaded into each well for 1.5 hr at room temperature in the dark, and the dye-loaded plates were subjected to Ca^2+-imaging using a Hamamatsu FDSS6000 real time fluorescence plate reader. Odorant solutions (9× final concentration) were prepared by dissolving 1M stock solutions into Hank's Buffered Salt Solution (HBSS), and 30 μL of odor solution was transferred to each well in 384-well plates.
(§5) Compounds ([…] in DMSO) were stored in 384-well plates, and last two columns (32 wells total) contained only DMSO. 200 nL of small compounds were transferred into the odorant plates before the assay using the Perkin-Elmer Janus workstation. The odorant plates were spun down to remove air bubbles, and placed on the FDSS6000 plate loader, and 5 μL of odorant solution was applied to the cell plate on the FDSS6000. Ca^2+ increase was monitored with fluorescence at 525 nm by excitation at 485 nm.

OR10/OR7 = OR10/OR7 (Anopheles gambiae, UniProt B5U0U7+Q7QCC7); experiment: Ca2+-imaging of stable HEK293T cell line OR10/OR7; conditions: for inhibition at 4 µM: HEK-293T, read-out: Percent Inhibition OR10 OR7
Experimental: as §2
After one day of incubation, the transfected cells were transferred into 10 cm dishes with DMEM containing antibiotics as follows: • 0.5 μg/mL of blasticidin for OR1/OR7, OR2/OR7, OR8/OR7, OR10/OR7, OR28/OR7 • 0.2 μg/mL of puromycin for TRPM8.
as §4, §5

OR28/OR7 = OR28/OR7 (Anopheles gambiae, UniProt A0A1S4GFY3+Q7QCC7); experiment: Ca2+-imaging of stable HEK293T cell line OR28/OR7; conditions: for inhibition at 4 µM: HEK-293T, read-out: Percent Inhibition OR28 OR7
Experimental: as §1, §2, §3, §4, §5

Chain of OR28/OR7 (A0A1S4GFY3 entry or part of it): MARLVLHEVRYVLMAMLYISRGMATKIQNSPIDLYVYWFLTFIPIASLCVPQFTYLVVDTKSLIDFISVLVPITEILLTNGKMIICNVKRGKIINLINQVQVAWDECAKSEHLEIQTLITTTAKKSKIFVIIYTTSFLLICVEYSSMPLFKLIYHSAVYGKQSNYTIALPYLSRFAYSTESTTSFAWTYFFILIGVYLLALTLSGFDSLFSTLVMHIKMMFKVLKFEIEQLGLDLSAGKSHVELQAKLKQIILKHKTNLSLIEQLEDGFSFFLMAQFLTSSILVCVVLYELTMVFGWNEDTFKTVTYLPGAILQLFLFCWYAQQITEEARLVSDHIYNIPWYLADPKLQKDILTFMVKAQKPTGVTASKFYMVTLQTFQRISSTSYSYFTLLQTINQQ
Chain of OR28/OR7 (Q7QCC7 whole entry): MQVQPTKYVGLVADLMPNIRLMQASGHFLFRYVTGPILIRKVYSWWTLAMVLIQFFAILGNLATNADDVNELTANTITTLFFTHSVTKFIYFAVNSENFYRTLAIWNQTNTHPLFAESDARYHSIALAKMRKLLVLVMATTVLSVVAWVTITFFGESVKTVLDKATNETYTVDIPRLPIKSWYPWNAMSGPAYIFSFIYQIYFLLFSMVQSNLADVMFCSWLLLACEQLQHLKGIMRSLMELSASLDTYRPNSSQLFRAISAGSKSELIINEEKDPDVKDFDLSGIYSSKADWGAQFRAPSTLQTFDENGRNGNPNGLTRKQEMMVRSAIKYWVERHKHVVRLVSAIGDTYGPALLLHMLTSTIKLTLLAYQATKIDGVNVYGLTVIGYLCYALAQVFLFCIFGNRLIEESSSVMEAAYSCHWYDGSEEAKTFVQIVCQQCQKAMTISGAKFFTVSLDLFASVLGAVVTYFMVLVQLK
T1 sequence (Q8R4D5 whole entry): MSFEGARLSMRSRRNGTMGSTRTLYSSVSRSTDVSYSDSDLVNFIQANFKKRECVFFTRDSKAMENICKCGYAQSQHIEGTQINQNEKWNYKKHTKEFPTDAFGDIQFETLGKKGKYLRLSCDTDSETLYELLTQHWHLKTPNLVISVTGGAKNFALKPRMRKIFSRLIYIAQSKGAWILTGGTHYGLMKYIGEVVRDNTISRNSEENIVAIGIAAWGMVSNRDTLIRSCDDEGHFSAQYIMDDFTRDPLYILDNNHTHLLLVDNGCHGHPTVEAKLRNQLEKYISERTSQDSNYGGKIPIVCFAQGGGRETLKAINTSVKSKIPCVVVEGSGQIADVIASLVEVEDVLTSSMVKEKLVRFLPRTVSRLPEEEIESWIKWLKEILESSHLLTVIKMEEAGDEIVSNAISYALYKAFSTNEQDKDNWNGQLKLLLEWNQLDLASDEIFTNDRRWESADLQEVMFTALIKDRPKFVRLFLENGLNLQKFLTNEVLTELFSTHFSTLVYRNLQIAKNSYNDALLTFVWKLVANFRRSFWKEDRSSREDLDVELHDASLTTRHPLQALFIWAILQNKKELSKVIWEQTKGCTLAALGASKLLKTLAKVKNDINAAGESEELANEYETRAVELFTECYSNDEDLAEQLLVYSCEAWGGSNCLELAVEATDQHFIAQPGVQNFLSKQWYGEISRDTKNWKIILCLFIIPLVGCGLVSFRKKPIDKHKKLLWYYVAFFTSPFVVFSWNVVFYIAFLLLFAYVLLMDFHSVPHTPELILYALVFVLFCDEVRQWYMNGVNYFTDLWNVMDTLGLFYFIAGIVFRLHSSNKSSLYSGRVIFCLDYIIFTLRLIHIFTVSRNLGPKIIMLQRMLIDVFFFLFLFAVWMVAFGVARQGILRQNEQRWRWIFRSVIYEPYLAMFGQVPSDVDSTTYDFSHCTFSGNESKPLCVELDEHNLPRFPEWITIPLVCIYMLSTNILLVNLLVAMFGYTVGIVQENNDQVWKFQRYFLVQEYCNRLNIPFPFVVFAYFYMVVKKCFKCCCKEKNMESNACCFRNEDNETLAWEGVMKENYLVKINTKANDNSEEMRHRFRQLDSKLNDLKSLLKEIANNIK
Chain of OR10/OR7 (Q7QCC7 whole entry): as the sequence (Q7QCC7 whole entry) above
Chain of OR10/OR7 (B5U0U7 entry or part of it): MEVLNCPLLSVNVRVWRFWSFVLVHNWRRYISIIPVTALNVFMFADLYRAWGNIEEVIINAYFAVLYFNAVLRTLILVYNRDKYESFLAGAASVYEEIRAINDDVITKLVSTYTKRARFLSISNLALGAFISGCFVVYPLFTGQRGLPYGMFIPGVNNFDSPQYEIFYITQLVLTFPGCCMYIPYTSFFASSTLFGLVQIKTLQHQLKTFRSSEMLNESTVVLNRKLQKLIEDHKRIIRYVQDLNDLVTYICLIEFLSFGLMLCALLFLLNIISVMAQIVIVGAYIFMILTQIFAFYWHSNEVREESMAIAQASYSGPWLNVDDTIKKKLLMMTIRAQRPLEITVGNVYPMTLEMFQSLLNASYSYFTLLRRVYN

| Compound | inhibition at 4 µM (TRP channel (TRPM8); compound applied at 4 μM) | inhibition at 4 µM (OR10/OR7; compound applied at 4 μM) | IC50 (OR10/OR7; Table B, read-out: IC50 OR10) | inhibition at 4 µM (OR28/OR7; compound applied at 4 μM) | IC50 (OR28/OR7; Table B, read-out: IC50 OR28) | inhibition at 4 µM (TRP channel (TRPM8)) | IC50 (OR10/OR7) | inhibition at 4 µM (OR10/OR7) | IC50 (OR28/OR7) | inhibition at 4 µM (OR28/OR7) |
| --- | --- | --- | --- | --- | --- | --- | --- | --- | --- | --- |
| CC(C)CN(Cc1nccn1Cc1ccc(Cl)cc1Cl)C(=O)c1ccccc1F [RU-0055322] | < 25% | 51 to 74% | < 100 nM | > 75% | < 100 nM |  |  |  |  |  |
| C=CCN(Cc1nccn1Cc1ccc(Cl)c(Cl)c1)C(=O)c1ccccc1F [RU-0047955] | < 25% | > 75% | < 100 nM | > 75% | < 100 nM |  |  |  |  |  |
| COc1ccc(-c2cc(-c3ccccc3)n(C(=O)CN3CCN(Cc4ccccc4)CC3)n2)cc1 [RU-0038795] | < 25% | < 25% |  | > 75% | < 100 nM |  |  |  |  |  |
| CCc1cc(N2CCCC2)nc(SCc2ccc(C(=O)N3CCOCC3)o2)n1 [RU-0047568] | 26 to 50% | > 75% | < 100 nM | > 75% | < 100 nM |  |  |  |  |  |
| COc1ccccc1C(=O)C1CCCN(C(=O)c2cccc(N3CCOCC3)c2)C1 (centres unmarked) [RU-0029350] | 26 to 50% | 51 to 74% | > 1000 nM | > 75% | 100 to 1000 nM |  |  |  |  |  |
| COCCN(Cc1nccn1Cc1c(F)cccc1Cl)C(=O)CCc1ccccc1 [RU-0058550] | < 25% | 26 to 50% |  | > 75% | < 100 nM |  |  |  |  |  |
| CCN(CC)C(=O)Oc1ccc2c(ccn2Cc2ccccc2Cl)c1NC(=O)CCCCC(=O)OC [RU-0075446] |  |  |  |  |  | < 25% | < 100 nM | > 75% | < 100 nM | > 75% |
| CC(C)CN(Cc1nccn1Cc1c(F)cccc1Cl)C(=O)c1ccc(F)cc1 [RU-0048054] | < 25% | 51 to 74% | < 100 nM | < 25% | < 100 nM |  |  |  |  |  |
| COc1cccc(NC(=O)CCC2CCN(C(=O)CSc3ccccc3)CC2)c1 [RU-0032474] | < 25% | < 25% |  | 51 to 74% | < 100 nM |  |  |  |  |  |
| CCOC(=O)C1CCCN(C(=O)c2csc(CSc3nnc(-c4cccc(OC)c4)n3-c3ccc(C)cc3)n2)C1 (centres unmarked) [RU-0071628] | < 25% | < 25% |  | > 75% | < 100 nM |  |  |  |  |  |
| CC(C)N(Cc1nccn1Cc1c(F)cccc1Cl)C(=O)c1ccc(Cl)cc1 [RU-0055364] | < 25% | > 75% | 100 to 1000 nM | > 75% | < 100 nM |  |  |  |  |  |
| Fc1ccccc1/C=N/Nc1nc(N2CCCCC2)nc(N2CCOCC2)n1 [RU-0018338] | 26 to 50% | 26 to 50% |  | 51 to 74% | < 100 nM |  |  |  |  |  |
| C=CCN(Cc1nccn1Cc1ccccc1F)C(=O)c1cccc(F)c1 [RU-0058232] | 26 to 50% | > 75% | < 100 nM | > 75% | < 100 nM |  |  |  |  |  |
| COc1cccc(-c2nnc(SCCCC(=O)N3CCN(C(=O)CC(C)(C)C)C(C)C3)n2-c2ccc(C)cc2)c1 (centres unmarked) [RU-0071818] | < 25% | 51 to 74% | > 1000 nM | > 75% | < 100 nM |  |  |  |  |  |
| COCCCN(Cc1c(-c2ccccc2)noc1N1CCC(C)CC1)C(=O)c1ccccc1F [RU-0036876] | < 25% | < 25% |  | > 75% | < 100 nM |  |  |  |  |  |
| Cc1cc(C)c(Cn2ccnc2CN(C(=O)c2ccccc2F)C(C)C)c(C)c1 [RU-0048001] | 26 to 50% | > 75% | < 100 nM | > 75% | < 100 nM |  |  |  |  |  |
